# From patent US10126303B2, “Methods for identifying compounds as modulators of SLC38A9 interactions” (Whitehead Institute for Biomedical Research, priority 2014, dated 2018)
# T1: SLC38A9.1 (Homo sapiens, UniProt Q8NBW4)
# T1 construct: made in house; host or cells: HEK-293T cells stably expressing FLAG-SLC38A9.1
# T1 sequence (Q8NBW4 1-561): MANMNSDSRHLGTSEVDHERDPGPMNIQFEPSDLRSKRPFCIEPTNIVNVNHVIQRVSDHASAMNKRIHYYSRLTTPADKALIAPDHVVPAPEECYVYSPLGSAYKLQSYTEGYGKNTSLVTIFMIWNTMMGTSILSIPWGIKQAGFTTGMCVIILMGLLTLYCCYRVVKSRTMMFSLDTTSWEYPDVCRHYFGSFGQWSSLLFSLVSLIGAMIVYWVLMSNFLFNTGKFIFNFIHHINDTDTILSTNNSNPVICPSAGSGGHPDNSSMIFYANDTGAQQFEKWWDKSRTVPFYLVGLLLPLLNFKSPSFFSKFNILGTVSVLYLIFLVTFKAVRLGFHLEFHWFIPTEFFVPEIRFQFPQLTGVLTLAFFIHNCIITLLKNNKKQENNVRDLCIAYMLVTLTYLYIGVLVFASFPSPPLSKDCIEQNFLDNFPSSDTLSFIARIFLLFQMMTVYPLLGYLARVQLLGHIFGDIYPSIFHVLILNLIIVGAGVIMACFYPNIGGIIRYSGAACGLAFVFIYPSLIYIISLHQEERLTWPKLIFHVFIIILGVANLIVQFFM
# Legend:
# mTORC1 = experiment: Amino acid-induced activation of the mTORC1 pathway in SLC38A9-null HEK-293T cells (immunoblot); type: cell-based; conditions: CRISPR/CAS9 knockout, starved 50 min, stimulated 10 min, range of concentrations
# Description: FIGS. 5A-SE depict the results of experiments arginine and related immunoblots depicting impairment of induced activation of the mTORC1 pathway. FIG. 5A depicts the time dependent uptake of [^3H]-arginine by proteoliposomes containing SCL38A9.1. FIG. SB, left panel, depicts the time course of [^3H]arginine uptake, given fixed [^3H]arginine (0.5 μM) and increasing concentrations of unlabeled arginine. FIG. 5B, right panel, depicts velocity, calculated from left panel, as a function of total arginine concentration. Data were fitted to the Michaelis-Menton equation. FIG. 5C depicts the time-dependent efflux of SLC38A9.1 proteoliposomes following 1.5 hr loading with 0.5 μM [^3H]arginine. FIG. 5D depicts the competition of 0.5 μM [^3H]arginine transport by SLC38A9.1 using 100 mM of indicated unlabeled amino acids. The error bars in FIGS. 5A-5D represent standard deviation derived from at least 3 measurements. […]
# HEK-293T cells (750,000/well) were plated into 6 well dishes and transfected 16 hours later with 1 μg of pX459 expressing above guides using XtremeGene9. […] Clones were expanded and evaluated for knockout status by western analysis for SLC38A9. These clones were evaluated for amino acid response as described above.
# SLC38A9.1 = target: T1, SLC38A9.1; experiment: Competition of [3H]arginine transport by SLC38A9.1 proteoliposomes using unlabeled amino acids; type: biochemical; conditions: 0.5 μM [3H]arginine; 100 mM unlabeled amino acid; 75 min
# Description: (§1) SLC38A9.1 proteoliposomes or liposome controls were centrifuged at 100,000 g for 30 min. in a TLA-100.3 rotor and resuspended in a smaller volume of outside buffer such that they could be added to a larger volume of 100 mM unlabeled amino acid (final concentration) supplemented with outside buffer components. […] At such high concentrations, it is important to adjust all amino acid solutions to pH 7.4. Assays were initiated by addition of 0.5 μM [^3H]arginine to the amino acid buffer solution followed by the addition of SLC38A9.1 proteoliposomes or liposome controls.
# For steady-state kinetics experiments, time points were collected as described above and to assess substrate specificity, competition experiments were collected at 75 min. For efflux experiments, SLC38A9.1 proteoliposomes or liposome controls were loaded with [^3H]arginine as described above for an import assay for 1.5 hrs. To remove external amino acids, the reactions were applied to PD10 columns pre-equilibrated with outside buffer, and time points were collected as described above. Scintillation counts from liposome controls were subtracted from that of SLC38A9.1 proteoliposomes.
# [1] = Solubility limit of amino acid in the transport assay solution; type: physicochemical
# Description: as §1
# [2] = substrate: N=C(N)NCCC[C@H](N)C(=O)O; experiment: Steady-state kinetics of [3H]arginine uptake by SLC38A9.1 proteoliposomes; type: biochemical, human; conditions: other: [3H]arginine 0.5 μM plus increasing unlabeled arginine, 30° C.
# Description: HEK-293T cells stably expressing FLAG-SLC38A9.1 were harvested as described above for immunoprecipitations, except cells were lysed in 40 mM HEPES pH 7.4, 0.5% Triton X-100, 1 mM DTT, and protease inhibitors. Following a 3 hr. immunoprecipitation, FLAG-affinity beads were washed twice for 5 min each in lysis buffer supplemented with 500 mM NaCl. Beads were equilibrated with inside buffer (20 mM MES pH 5, 90 mM KCl 10 mM NaCl) supplemented with 10% glycerol by washing them 5 times. FLAG-affinity purified SLC38A9.1 protein was eluted in glycerol-supplemented inside buffer containing 1 mg/mL FLAG peptide by rotation for 30 min. Protein was concentrated using Amicon centrifuge filters to about 1 mg/mL and snap-frozen in liquid nitrogen and stored at −80° C.
# To form liposomes, chloroform-dissolved phosphatidylcholine (PC, 50 mg) was evaporated using dry nitrogen to yield a lipid film in a round bottom flask and desiccated overnight under vacuum. Lipids were hydrated in inside buffer at 50 mg/mL with light sonication in a water bath (Branson M2800H) and split into 100 μL aliquots in Eppendorf tubes. Aliquoted lipids were clarified using water bath sonication and recombined and extruded through a 100 nm membrane with 15 passes (Avanti 61000). […]
Molecule,activation of mTORC1 by the amino acid in SLC38A9 knockouts vs control cells (mTORC1),competition of radiolabelled arginine transport (SLC38A9.1),also measured
N=C(N)NCCC[C@H](N)C(=O)O [arginine],strongly repressed at all arginine concentrations,,
NCCCC[C@H](N)C(=O)O [lysine],,competed radiolabelled arginine transport to similar degrees as arginine,
N[C@@H](Cc1c[nH]cn1)C(=O)O [histidine],,competed radiolabelled arginine transport to similar degrees as arginine,
CC(C)C[C@H](N)C(=O)O [leucine],only blunted,modest effect,solubility [1]: ~130 mM
NCC(=O)O [glycine],,least effective competitor,
"SLC38A9.1 (Homo sapiens) (protein, made in house; host or cells: HEK-293T cells stably expressing FLAG-SLC38A9.1) MANMNSDSRHLGTSEVDHERDPGPMNIQFEPSDLRSKRPFCIEPTNIVNVNHVIQRVSDHASAMNKRIHYYSRLTTPADKALIAPDHVVPAPEECYVYSPLGSAYKLQSYTEGYGKNTSLVTIFMIWNTMMGTSILSIPWGIKQAGFTTGMCVIILMGLLTLYCCYRVVKSRTMMFSLDTTSWEYPDVCRHYFGSFGQWSSLLFSLVSLIGAMIVYWVLMSNFLFNTGKFIFNFIHHINDTDTILSTNNSNPVICPSAGSGGHPDNSSMIFYANDTGAQQFEKWWDKSRTVPFYLVGLLLPLLNFKSPSFFSKFNILGTVSVLYLIFLVTFKAVRLGFHLEFHWFIPTEFFVPEIRFQFPQLTGVLTLAFFIHNCIITLLKNNKKQENNVRDLCIAYMLVTLTYLYIGVLVFASFPSPPLSKDCIEQNFLDNFPSSDTLSFIARIFLLFQMMTVYPLLGYLARVQLLGHIFGDIYPSIFHVLILNLIIVGAGVIMACFYPNIGGIIRYSGAACGLAFVFIYPSLIYIISLHQEERLTWPKLIFHVFIIILGVANLIVQFFM",,,Km [2]: 39 mM; kcat [2]: 0.03 s⁻¹
